# Measurements from paper PMC8991960, “A Bivalent Activatable Fluorescent Probe for Screening and Intravital Imaging of Chemotherapy‐Induced Cancer Cell Death” (Angewandte Chemie (International Ed. in English), 2021).
# Starred links: 1 amine or outer side, 2 acyl side, 3 side chain; linkers in the order of their positions; H or OH if unused. Non-standard residues stand in square brackets, D forms with d. Residues, ends and D or L forms follow the SMILES beside them. X1 = CC1=CC(C)=[N+]2C1=C(c1cccc(-c3[nH]c4ccccc4c3C[C@H](N[*:1])C(=O)[*:2])c1)c1ccc(-c3ccc(C)s3)n1[B-]2(F)F
# Columns and labels:
# [1] = Stability analysis in mouse serum; type: in vitro ADME; conditions: mouse serum vs PBS, 24 h, 37 °C, 500 rpm; 25 µM (Figure S14) or 50 µM (method); HPLC after CH3CN protein precipitation, and fluorescence (exc 520 nm)
# Description: Optical intravital imaging is increasingly used for the preclinical evaluation of anticancer drugs in vivo. Although imaging modalities like computed tomography, positron emission tomography and magnetic resonance imaging can help to visualise whole intact organs in a non‐invasive manner,[26] they lack the spatiotemporal resolution needed to study dynamic interactions between individual tumour and stromal cells. This feature is critical to understand the mechanism of action of anticancer drugs and how they can affect interactions between cancer cells and immune cells in the tumour microenvironment.[27] Intravital imaging heavily relies on the acquisition of fluorescence signals using multiphoton microscopy, which provides cellular resolution with deep tissue penetration (≈500 μm) and minimal photodamage.[28] […] First, we analysed the chemical stability of Apotracker Red for in vivo studies by incubating the probe in mouse serum. […] When primary tumours measured around 0.5–1 cm in diameter, we administered cisplatin intraperitoneally (10 mg kg^−1). […]
# fluorescence emission of Apotracker Red before and after incubation in mouse serum and […]
# Fluorescence spectra were recorded after excitation at 520 nm. […]
# Lipid layer assays . […] The LoD was calculated using the equation LoD = (3 × σ)/k, where σ is the standard […]
# MCF7 cells = test: Cell viability (TACS MTT cell proliferation assay); type: cell-based, human; conditions: MCF7, different concentrations, 3 h, n=5
# Protocol: (§1) Figure S15. Cell viability experiments (TACS® MTT cell proliferation assay) after incubation of Apotracker Red in breast cancer cell lines (a: MCF7 cells, b: MDA-MB-231 cells) at different concentrations for 3 h. Data presented as means ± SD (n=5). P values obtained from one- way ANOVA using multiple comparisons (ns for p>0.05).
# (§2) Figure S16. Quantification of E GFP+ macrophages in tumours from untreated and cisplatin-treated mice by time- lapse imaging on a spinning disk confocal microscope (λexc: 488 nm). Data presented as means ± SD of 8 random areas in 2- 3 mice per group (untreated or treated with 10 μg g-1 cisplatin for 72 h). […]
# MDA-MB-231 cells = test: Cell viability (TACS MTT cell proliferation assay); type: cell-based, human; conditions: MDA-MB-231, different concentrations, 3 h, n=5
# Protocol: as §1, §2
compound,measurement,setting,value
CC1=CC(C)=[N+]2C1=C(c1cccc(-c3[nH]c4ccccc4c3C[C@@H]3NC(=O)[C@H](Cc4ccccc4)NC(=O)[C@H](Cc4c[nH]c5ccccc45)NC(=O)[C@H](CCCCN)NC(=O)[C@H](CCCCN)NC(=O)[C@H](CCCNC(=N)N)NC(=O)CNC3=O)c1)c1ccc(-c3ccc(C)s3)n1[B-]2(F)F [Apotracker Red] (cyclo(F[X1]GRKKW)),Proteolytic stability in mouse serum,[1],good proteolytic stability for up to 24 h
same,Cell toxicity (MTT),MCF7 cells,did not cause cell toxicity
same,Cell toxicity (MTT),MDA-MB-231 cells,did not cause cell toxicity
